Measured values from the kinase profiling compilation of Christmann-Franck et al. (2016).

Columns and labels:
Experiment in all cases: KINOMEscan competition binding
Conditions in all cases: compound 10.0 µM
CDKL3 (human) = CDKL3 (human) (UniProt Q8IVW4)
PAK7 (human) = PAK7 (human) (UniProt Q9P286)
FES (human) = FES (human) (UniProt P07332)
MELK (human) = MELK (human) (UniProt Q14680)
FGFR2 (human) = FGFR2 (human) (UniProt P21802)
TTK (human) = TTK (human) (UniProt P33981)
CDK8 (human) = CDK8 (human) (UniProt P49336)
CDC42BPB (human) = CDC42BPB (human) (UniProt Q9Y5S2)
MAP3K2 (human) = MAP3K2 (human) (UniProt Q9Y2U5)
PIK3CB (human) = PIK3CB (human) (UniProt P42338)
ACVR2B (human) = ACVR2B (human) (UniProt Q13705)
IRAK3 (human) = IRAK3 (human) (UniProt Q9Y616)
CSNK1G1 (human) = CSNK1G1 (human) (UniProt Q9HCP0)
FLT3 (human) = FLT3 (human) (UniProt P36888)
[1] = biological target: JAK1 JH2 pseudokinase (human) (UniProt P23458)
PTK6 (human) = PTK6 (human) (UniProt Q13882)
DYRK2 (human) = DYRK2 (human) (UniProt Q92630)
DAPK2 (human) = DAPK2 (human) (UniProt Q9UIK4)
RIPK4 (human) = RIPK4 (human) (UniProt P57078)
[2] = system: FGFR3 (human), P22607 [G697C]
SYK (human) = SYK (human) (UniProt P43405)
ERBB3 (human) = ERBB3 (human) (UniProt P21860)
CSNK1D (human) = CSNK1D (human) (UniProt P48730)
CDK15 (human) = CDK15 (human) (UniProt Q96Q40)
MST4 (human) = MST4 (human) (UniProt Q9P289)
CDC2L2 (human) = CDC2L2 (human) (UniProt Q9UQ88)
OXSR1 (human) = OXSR1 (human) (UniProt O95747)
PDGFRB (human) = PDGFRB (human) (UniProt P09619)
MKNK2 (human) = MKNK2 (human) (UniProt Q9HBH9)
EPHB6 (human) = EPHB6 (human) (UniProt O15197)
PRKCD (human) = PRKCD (human) (UniProt Q05655)
MAP2K3 (human) = MAP2K3 (human) (UniProt P46734)
BMPR1A (human) = BMPR1A (human) (UniProt P36894)
TNK1 (human) = TNK1 (human) (UniProt Q13470)
CSNK1E (human) = CSNK1E (human) (UniProt P49674)
RPS6KA3 KD1 (human) = RPS6KA3 KD1 (human) (UniProt P51812)
CSNK1G3 (human) = CSNK1G3 (human) (UniProt Q9Y6M4)
PIM1 (human) = PIM1 (human) (UniProt P11309)
RIOK2 (human) = RIOK2 (human) (UniProt Q9BVS4)
PRKACB (human) = PRKACB (human) (UniProt P22694)

Chain of FLT3 (human) (P36888 whole entry, looked up): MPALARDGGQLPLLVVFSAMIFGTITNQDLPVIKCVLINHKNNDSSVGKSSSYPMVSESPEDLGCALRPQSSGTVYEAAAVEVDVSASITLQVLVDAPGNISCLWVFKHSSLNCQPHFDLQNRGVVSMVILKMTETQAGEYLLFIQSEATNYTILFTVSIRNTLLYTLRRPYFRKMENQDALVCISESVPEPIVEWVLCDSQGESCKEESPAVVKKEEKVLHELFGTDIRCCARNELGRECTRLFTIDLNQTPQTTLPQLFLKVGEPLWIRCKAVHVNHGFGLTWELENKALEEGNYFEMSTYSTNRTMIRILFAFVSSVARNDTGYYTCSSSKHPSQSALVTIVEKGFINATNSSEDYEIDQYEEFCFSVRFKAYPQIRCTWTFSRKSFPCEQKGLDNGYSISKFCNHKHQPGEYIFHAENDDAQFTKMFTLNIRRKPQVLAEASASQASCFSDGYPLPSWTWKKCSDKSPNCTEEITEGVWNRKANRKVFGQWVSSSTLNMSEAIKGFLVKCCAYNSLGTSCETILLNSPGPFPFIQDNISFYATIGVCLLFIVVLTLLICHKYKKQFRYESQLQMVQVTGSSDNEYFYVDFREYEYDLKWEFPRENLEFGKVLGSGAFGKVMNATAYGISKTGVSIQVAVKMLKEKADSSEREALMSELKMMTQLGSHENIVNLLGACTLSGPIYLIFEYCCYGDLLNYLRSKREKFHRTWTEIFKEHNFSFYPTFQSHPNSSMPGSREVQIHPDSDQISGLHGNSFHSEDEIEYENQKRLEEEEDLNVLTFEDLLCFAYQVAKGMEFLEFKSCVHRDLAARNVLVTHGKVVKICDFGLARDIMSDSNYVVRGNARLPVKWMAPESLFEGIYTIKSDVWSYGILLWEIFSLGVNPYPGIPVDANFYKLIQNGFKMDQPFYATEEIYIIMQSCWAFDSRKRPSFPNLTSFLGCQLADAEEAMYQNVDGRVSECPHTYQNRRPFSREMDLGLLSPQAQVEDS
Chain of FES (human) (P07332 whole entry, looked up): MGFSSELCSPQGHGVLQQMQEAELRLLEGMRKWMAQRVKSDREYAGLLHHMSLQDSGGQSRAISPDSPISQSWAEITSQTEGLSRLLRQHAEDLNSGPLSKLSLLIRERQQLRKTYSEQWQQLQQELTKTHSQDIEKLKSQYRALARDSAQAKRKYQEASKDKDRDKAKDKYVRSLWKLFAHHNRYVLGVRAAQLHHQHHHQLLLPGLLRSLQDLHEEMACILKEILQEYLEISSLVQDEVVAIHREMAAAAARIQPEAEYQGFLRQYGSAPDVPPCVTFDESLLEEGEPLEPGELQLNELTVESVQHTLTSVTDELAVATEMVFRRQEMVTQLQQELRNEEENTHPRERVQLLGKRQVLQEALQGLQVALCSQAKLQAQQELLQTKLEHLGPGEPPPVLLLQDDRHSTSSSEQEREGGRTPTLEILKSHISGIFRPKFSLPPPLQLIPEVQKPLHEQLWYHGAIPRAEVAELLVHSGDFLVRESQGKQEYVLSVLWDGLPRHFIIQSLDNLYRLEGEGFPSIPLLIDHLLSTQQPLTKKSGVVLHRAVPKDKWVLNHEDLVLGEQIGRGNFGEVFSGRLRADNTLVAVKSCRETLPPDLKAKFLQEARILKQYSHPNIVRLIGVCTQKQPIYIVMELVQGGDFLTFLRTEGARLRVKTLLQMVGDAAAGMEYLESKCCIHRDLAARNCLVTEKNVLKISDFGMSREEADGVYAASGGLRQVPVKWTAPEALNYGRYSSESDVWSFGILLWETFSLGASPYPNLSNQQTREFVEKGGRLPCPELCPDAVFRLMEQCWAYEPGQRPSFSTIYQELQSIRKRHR
Chain of DYRK2 (human) (Q92630 whole entry, looked up): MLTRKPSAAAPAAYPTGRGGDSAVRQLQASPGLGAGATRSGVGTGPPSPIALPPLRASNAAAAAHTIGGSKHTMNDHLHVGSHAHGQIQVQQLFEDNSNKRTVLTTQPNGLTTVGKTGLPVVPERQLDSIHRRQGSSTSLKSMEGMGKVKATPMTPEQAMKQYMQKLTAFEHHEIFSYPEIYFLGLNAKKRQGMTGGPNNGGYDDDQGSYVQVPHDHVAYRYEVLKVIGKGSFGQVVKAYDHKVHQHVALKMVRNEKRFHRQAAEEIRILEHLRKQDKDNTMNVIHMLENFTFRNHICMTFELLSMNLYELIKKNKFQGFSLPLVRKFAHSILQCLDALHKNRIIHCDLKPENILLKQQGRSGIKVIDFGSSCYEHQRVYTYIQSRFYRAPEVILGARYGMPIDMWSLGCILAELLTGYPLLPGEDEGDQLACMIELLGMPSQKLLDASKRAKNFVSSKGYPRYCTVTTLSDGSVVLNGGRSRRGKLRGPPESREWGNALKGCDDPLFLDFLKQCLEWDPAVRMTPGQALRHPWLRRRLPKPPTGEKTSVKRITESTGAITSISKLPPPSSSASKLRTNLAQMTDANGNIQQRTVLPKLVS
Chain of PAK7 (human) (Q9P286 whole entry, looked up): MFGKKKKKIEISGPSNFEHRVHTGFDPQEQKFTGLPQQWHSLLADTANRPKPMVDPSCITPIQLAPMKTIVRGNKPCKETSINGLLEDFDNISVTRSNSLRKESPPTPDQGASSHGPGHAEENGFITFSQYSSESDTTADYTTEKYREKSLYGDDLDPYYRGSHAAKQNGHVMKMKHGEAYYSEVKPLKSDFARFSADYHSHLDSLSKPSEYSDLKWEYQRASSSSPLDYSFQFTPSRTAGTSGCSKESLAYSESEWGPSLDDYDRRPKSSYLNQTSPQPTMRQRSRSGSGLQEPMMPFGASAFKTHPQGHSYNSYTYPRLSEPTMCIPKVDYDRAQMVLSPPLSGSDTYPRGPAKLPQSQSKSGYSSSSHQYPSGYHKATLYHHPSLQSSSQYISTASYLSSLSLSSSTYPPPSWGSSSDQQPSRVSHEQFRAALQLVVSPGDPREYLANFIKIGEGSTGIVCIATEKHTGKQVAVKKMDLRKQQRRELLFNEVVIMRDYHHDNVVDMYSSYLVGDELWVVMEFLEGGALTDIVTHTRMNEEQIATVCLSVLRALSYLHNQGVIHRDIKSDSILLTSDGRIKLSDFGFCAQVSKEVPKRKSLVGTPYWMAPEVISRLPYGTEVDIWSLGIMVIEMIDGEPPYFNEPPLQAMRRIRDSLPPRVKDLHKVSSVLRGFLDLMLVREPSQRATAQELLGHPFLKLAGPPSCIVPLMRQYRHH
Chain of CDC42BPB (human) (Q9Y5S2 whole entry, looked up): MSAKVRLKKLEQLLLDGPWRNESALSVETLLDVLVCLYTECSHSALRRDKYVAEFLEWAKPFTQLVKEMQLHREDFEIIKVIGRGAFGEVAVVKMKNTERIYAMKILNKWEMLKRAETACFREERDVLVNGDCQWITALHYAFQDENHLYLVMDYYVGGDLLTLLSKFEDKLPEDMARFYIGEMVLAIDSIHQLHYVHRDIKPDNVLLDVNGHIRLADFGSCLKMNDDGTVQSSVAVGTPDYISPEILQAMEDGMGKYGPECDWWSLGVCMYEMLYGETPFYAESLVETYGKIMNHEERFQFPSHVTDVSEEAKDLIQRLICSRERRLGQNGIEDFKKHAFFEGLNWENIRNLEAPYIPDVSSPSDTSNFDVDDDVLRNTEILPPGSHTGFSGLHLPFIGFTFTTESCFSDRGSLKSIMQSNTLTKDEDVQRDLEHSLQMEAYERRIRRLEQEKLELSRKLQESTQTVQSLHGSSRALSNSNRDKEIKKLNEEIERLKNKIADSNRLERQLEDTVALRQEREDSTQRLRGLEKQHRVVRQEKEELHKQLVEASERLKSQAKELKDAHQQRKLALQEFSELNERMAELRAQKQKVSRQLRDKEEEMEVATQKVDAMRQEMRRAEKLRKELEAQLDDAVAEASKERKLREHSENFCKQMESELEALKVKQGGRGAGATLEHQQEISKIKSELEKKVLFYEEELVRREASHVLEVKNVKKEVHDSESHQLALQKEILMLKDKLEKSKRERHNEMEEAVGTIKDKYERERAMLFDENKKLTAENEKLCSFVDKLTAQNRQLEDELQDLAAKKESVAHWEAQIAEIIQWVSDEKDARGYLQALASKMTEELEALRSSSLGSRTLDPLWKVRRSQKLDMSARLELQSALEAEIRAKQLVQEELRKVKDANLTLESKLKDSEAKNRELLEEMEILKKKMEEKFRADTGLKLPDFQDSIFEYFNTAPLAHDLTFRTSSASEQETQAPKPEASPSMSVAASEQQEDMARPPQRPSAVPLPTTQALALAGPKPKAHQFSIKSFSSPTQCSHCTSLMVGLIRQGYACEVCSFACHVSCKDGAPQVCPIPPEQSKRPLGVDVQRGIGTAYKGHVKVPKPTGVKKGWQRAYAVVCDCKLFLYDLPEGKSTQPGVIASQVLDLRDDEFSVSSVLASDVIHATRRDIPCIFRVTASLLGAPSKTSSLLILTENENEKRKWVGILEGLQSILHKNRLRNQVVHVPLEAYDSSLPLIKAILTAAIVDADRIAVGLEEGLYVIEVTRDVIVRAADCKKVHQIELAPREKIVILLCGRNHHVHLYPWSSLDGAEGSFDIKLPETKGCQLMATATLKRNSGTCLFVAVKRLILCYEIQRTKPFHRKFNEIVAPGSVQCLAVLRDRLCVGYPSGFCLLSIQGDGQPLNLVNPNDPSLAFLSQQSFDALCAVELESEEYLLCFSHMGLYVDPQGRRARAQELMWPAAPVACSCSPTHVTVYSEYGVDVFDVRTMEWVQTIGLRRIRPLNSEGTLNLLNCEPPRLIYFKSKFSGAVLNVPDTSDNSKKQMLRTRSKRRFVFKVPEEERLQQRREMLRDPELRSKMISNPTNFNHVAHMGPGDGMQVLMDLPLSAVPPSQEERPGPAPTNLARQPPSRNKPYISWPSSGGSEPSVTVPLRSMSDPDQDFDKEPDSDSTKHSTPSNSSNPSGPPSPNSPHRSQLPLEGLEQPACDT

| SMILES | kinase still bound, per cent of control (CDKL3 (human)) [%] | kinase still bound, per cent of control (PAK7 (human)) [%] | kinase still bound, per cent of control (FES (human)) [%] | kinase still bound, per cent of control (MELK (human)) [%] | kinase still bound, per cent of control (FGFR2 (human)) [%] | kinase still bound, per cent of control (TTK (human)) [%] | kinase still bound, per cent of control (CDK8 (human)) [%] | kinase still bound, per cent of control (CDC42BPB (human)) [%] | kinase still bound, per cent of control (MAP3K2 (human)) [%] | kinase still bound, per cent of control (PIK3CB (human)) [%] | kinase still bound, per cent of control (ACVR2B (human)) [%] | kinase still bound, per cent of control (IRAK3 (human)) [%] | kinase still bound, per cent of control (FLT3 (human)) [%] | kinase still bound, per cent of control [1] [%] | kinase still bound, per cent of control (PTK6 (human)) [%] | kinase still bound, per cent of control (DYRK2 (human)) [%] | kinase still bound, per cent of control (DAPK2 (human)) [%] | kinase still bound, per cent of control (RIPK4 (human)) [%] | kinase still bound, per cent of control [2] [%] | kinase still bound, per cent of control (ERBB3 (human)) [%] | other results |
| --- | --- | --- | --- | --- | --- | --- | --- | --- | --- | --- | --- | --- | --- | --- | --- | --- | --- | --- | --- | --- | --- |
| CC1=C(C(=O)Nc2cc3cn[nH]c3cc2F)C(c2ccc(C(F)(F)F)cc2)CC(=O)N1 (stereo not given) | 78 | 79 | 95 | 99 | 95 | 100 | 79 | 22 | 79 | 86 | 96 | 85 | 100 | 100 | 60 | 100 | 92 | 98 | 84 | 92 | kinase still bound, per cent of control (CSNK1G1 (human)): 100%; kinase still bound, per cent of control (SYK (human)): 100%; kinase still bound, per cent of control (CSNK1D (human)): 92%; kinase still bound, per cent of control (CDK15 (human)): 84%; kinase still bound, per cent of control (MST4 (human)): 24%; kinase still bound, per cent of control (CDC2L2 (human)): 96%; kinase still bound, per cent of control (OXSR1 (human)): 92%; kinase still bound, per cent of control (PDGFRB (human)): 70%; kinase still bound, per cent of control (MKNK2 (human)): 62%; kinase still bound, per cent of control (EPHB6 (human)): 68%; kinase still bound, per cent of control (PRKCD (human)): 39%; kinase still bound, per cent of control (MAP2K3 (human)): 67%; kinase still bound, per cent of control (BMPR1A (human)): 17%; kinase still bound, per cent of control (TNK1 (human)): 33%; kinase still bound, per cent of control (CSNK1E (human)): 79%; kinase still bound, per cent of control (RPS6KA3 KD1 (human)): 53%; kinase still bound, per cent of control (CSNK1G3 (human)): 90%; kinase still bound, per cent of control (PIM1 (human)): 88%; kinase still bound, per cent of control (RIOK2 (human)): 86% |
| CCN(CCO)CCCOc1ccc2c(Nc3cc(CC(=O)Nc4cccc(F)c4)[nH]n3)ncnc2c1 | 99 | 100 | 100 | 47 | 80 | 49 | 75 | 100 | 87 | 81 | 100 | 37 | 0.4 | 100 | 72 | 73 | 89 | 41 | 100 | 35 | kinase still bound, per cent of control (CSNK1D (human)): 71%; kinase still bound, per cent of control (CDK15 (human)): 88%; kinase still bound, per cent of control (MST4 (human)): 37%; kinase still bound, per cent of control (CDC2L2 (human)): 5%; kinase still bound, per cent of control (OXSR1 (human)): 100%; kinase still bound, per cent of control (PRKACB (human)): 100%; kinase still bound, per cent of control (PDGFRB (human)): 0%; kinase still bound, per cent of control (MKNK2 (human)): 6.4%; kinase still bound, per cent of control (EPHB6 (human)): 0.8%; kinase still bound, per cent of control (PRKCD (human)): 91%; kinase still bound, per cent of control (BMPR1A (human)): 29%; kinase still bound, per cent of control (TNK1 (human)): 86%; kinase still bound, per cent of control (CSNK1E (human)): 100%; kinase still bound, per cent of control (RPS6KA3 KD1 (human)): 80%; kinase still bound, per cent of control (CSNK1G3 (human)): 100%; kinase still bound, per cent of control (PIM1 (human)): 100%; kinase still bound, per cent of control (RIOK2 (human)): 58% |
| COc1cc2c(Nc3ccc(NC(=O)c4ccccc4)cc3)ncnc2cc1OCCCN1CCOCC1 | 100 | 94 | 100 | 42 | 89 | 40 | 100 | 100 | 28 | 81 | 100 | 17 | 8.8 | 32 | 0.8 | 91 | 90 | 56 | 100 | 1 | kinase still bound, per cent of control (CSNK1G1 (human)): 97%; kinase still bound, per cent of control (SYK (human)): 69%; kinase still bound, per cent of control (CSNK1D (human)): 71%; kinase still bound, per cent of control (CDK15 (human)): 68%; kinase still bound, per cent of control (MST4 (human)): 44%; kinase still bound, per cent of control (CDC2L2 (human)): 6.9%; kinase still bound, per cent of control (OXSR1 (human)): 100%; kinase still bound, per cent of control (PRKACB (human)): 100%; kinase still bound, per cent of control (PDGFRB (human)): 1.1%; kinase still bound, per cent of control (MKNK2 (human)): 4.2%; kinase still bound, per cent of control (EPHB6 (human)): 2%; kinase still bound, per cent of control (PRKCD (human)): 100%; kinase still bound, per cent of control (MAP2K3 (human)): 100%; kinase still bound, per cent of control (BMPR1A (human)): 37%; kinase still bound, per cent of control (TNK1 (human)): 69%; kinase still bound, per cent of control (CSNK1E (human)): 80%; kinase still bound, per cent of control (CSNK1G3 (human)): 100%; kinase still bound, per cent of control (PIM1 (human)): 100%; kinase still bound, per cent of control (RIOK2 (human)): 100% |
